PMC6792352, “Limited Chemical Structural Diversity Found to Modulate Thyroid Hormone Receptor in the Tox21 Chemical Library” (Environmental Health Perspectives, 2019)
Where a name gives a salt, the structure may show the parent alone.

Test: in vitro
Settings: rat, gh3-tre-luc cells

Row | SMILES | CC50 at 24 h (AC50 (uM) modified / 1000) | other results
1 | CC(C)C1CCC(Cc2ccc(Cl)cc2)C1(O)Cn1cncn1 (centres unmarked) [Ipconazole] | 41.7 µM | –
2 | O=C(O)Cc1ccccc1Oc1ccc(Cl)cc1Cl [Fenclofenac] | > 50 µM | –
3 | C=C(C)C(=O)OCC(C)(C)COC(=O)C(=C)C [2,2-Dimethylpropane-1,3-diyl bis(2-methylprop-2-enoate)] | > 90 µM | –
4 | CCCCc1cc2ccccc2c(OCCN(C)C)n1 [Dimethisoquin hydrochloride] | 7.4 µM | –
5 | CO[Si](C)(OC)c1ccccc1 [Dimethoxy(methyl)phenylsilane] | > 90 µM | –
6 | Cc1cccc(C)c1N(CCCc1cccnc1)C(=O)C(C)N (centres unmarked) [Ro 22-9194] | > 50 µM | –
7 | Cc1cc(C)c(O)c(C)c1 [2,4,6-Trimethylphenol] | > 90 µM | –
8 | Cc1nnc(C(=O)NC(C)(C)c2nc(C(=O)NCc3ccc(F)cc3)c(O)c(=O)n2C)o1 [Raltegravir] | > 50 µM | –
9 | CCOC(CN1CCN(CC(C)C(=O)c2ccccc2)CC1)c1ccccc1 (centres unmarked) [Eprazinone dihydrochloride] | > 50 µM | –
10 | CN1C(=O)CC(c2ccccc2)C1=O (centres unmarked) [Phensuximide] | > 50 µM | –
11 | CCC(=O)O[C@]1(C(=O)SCF)[C@H](C)C[C@H]2[C@@H]3C[C@H](F)C4=CC(=O)C=C[C@]4(C)[C@@]3(F)[C@@H](O)C[C@@]21C [Fluticasone propionate] | > 20 µM | –
12 | Cc1ccn2nc(S(=O)(=O)Nc3c(F)cccc3F)nc2n1 [Flumetsulam] | > 90 µM | –
13 | COC(=O)Nc1nc2ccc(C(=O)c3cccs3)cc2[nH]1 [Nocodazole] | 0.337 µM | –
14 | C=CCCCCCCCCOC(C)=O [9-Decenyl acetate] | > 90 µM | –
15 | N#CC(Cl)(Cl)Cl [Trichloroacetonitrile] | > 90 µM | –
16 | O=Nc1ccc(O)cc1 [4-Nitrosophenol] | > 90 µM | –
17 | C=C(C)[C@@H]1CC=C(C)CC1 [(S)-Limonene] | > 90 µM | –
18 | CC(C)C[C@H](NC(=O)[C@@H](COC(C)(C)C)NC(=O)[C@H](Cc1ccc(O)cc1)NC(=O)[C@H](CO)NC(=O)[C@H](Cc1c[nH]c2ccccc12)NC(=O)[C@H](Cc1cnc[nH]1)NC(=O)[C@@H]1CCC(=O)N1)C(=O)N[C@@H](CCCNC(=N)N)C(=O)N1CCC[C@H]1C(=O)NNC(N)=O [Goserelin acetate] | > 50 µM | –
19 | Cc1cccc2cccnc12 [8-Methylquinoline] | > 90 µM | –
20 | NC(=S)NC(N)=S [2,4-Dithiobiuret] | > 90 µM | –
21 | CCCCCCCCCCCCCCCCCl [1-Chlorohexadecane] | > 20 µM | –
22 | CCN(CC)CCOC(=O)c1cccnc1 [Nicametate citrate] | > 50 µM | –
23 | O=C1CCCCC1 [Cyclohexanone] | > 100 µM | –
24 | CCCCNc1ccc(C(=O)OCCOCCOCCOCCOCCOCCOCCOCCOCCOC)cc1 [Benzonatate] | > 20 µM | –
25 | COC(F)(F)C(Cl)Cl [Methoxyflurane] | > 50 µM | –
26 | CNC1(C)C2CCC(C2)C1(C)C (centres unmarked) [Mecamylamine] | > 50 µM | –
27 | O=C(N[C@@H](Cc1ccccc1)[C@@H](O)C(=O)N1C[C@@H](O)[C@@H](O)C1)c1cc2cc(Cl)ccc2[nH]1 [Ingliforib] | 78.2 µM | –

Row | SMILES | CC50 at 24 h (AC50 (uM) modified / 1000) | other results
28 | CCCCOCCOCCO [2-(2-Butoxyethoxy)ethanol] | > 90 µM | –
29 | COc1ccccc1N1CCNCC1 [1-(2-Methoxyphenyl)piperazine hydrochloride] | – | CC50 at 24 h (AC50 (uM) modified / 1000, Tox21_110001=Tox21_111273, viability, 1 nM T3 present, 24 h): > 50 µM
30 | CC(=O)CC(c1ccccc1)c1c(O)c2ccccc2oc1=O (centres unmarked) [Warfarin] | > 90 µM | –
31 | CC=C(Cl)Cl [1,1-Dichloropropene] | > 90 µM | –
32 | N[C@@H](CCC(=O)O)C(=O)O [L-Glutamic acid hydrochloride] | > 90 µM | –
33 | CCCC(=O)C(CC)Sc1ccoc1C (centres unmarked) [3-(2-Methyl-3-furylthio)-4-heptanone] | > 90 µM | –
34 | CCOc1cc(N)c(Cl)cc1C(=O)NCC1CN(Cc2ccc(F)cc2)CCO1 (centres unmarked) [Mosapride citrate] | > 50 µM | –
35 | NC(=O)Cn1c(=O)cc(CCN2CCN(c3nccc4sccc34)CC2)c2ccc(F)cc21 [Trelanserin] | 52.8 µM | –
36 | CCC1CO1 (centres unmarked) [1,2-Epoxybutane] | > 90 µM | –
37 | Cc1ccccc1-n1c(C)nc2ccccc2c1=O [Methaqualone] | > 50 µM | –
38 | C[N+]1([O-])CCOCC1 [4-Methylmorpholine 4-oxide] | > 90 µM | –
39 | CN1[C@H]2CC[C@@H]1[C@@H](C(=O)O)[C@@H](OC(=O)c1ccccc1)C2 [Benzoylecgonine] | – | CC50 at 24 h (AC50 (uM) modified / 1000, Tox21_110001=Tox21_112607, viability, 1 nM T3 present, 24 h): > 50 µM; CC50 at 24 h (AC50 (uM) modified / 1000, Tox21_110001=Tox21_112853, viability, 1 nM T3 present, 24 h): > 100 µM
40 | CNC(=O)ON=C(C)SC [Methomyl] | > 90 µM | –
41 | CCC(=O)NS(=O)(=O)c1ccc(-c2c(-c3ccccc3)noc2C)cc1 [Parecoxib sodium] | > 50 µM | –
42 | CC[N+]1(CC)CCC(=C(c2ccccc2)c2ccccc2)C1C (centres unmarked) [Prifinium bromide] | > 50 µM | –
43 | CCOC(=O)C(=O)OCC [Diethyl oxalate] | > 90 µM | –
44 | CC12CCC(C[N+](C)(CCC[N+](C)(C)C)C1)C2(C)C (centres unmarked) [Trimethidinium methyl sulfate] | > 50 µM | –
45 | CCCCCCCCN [1-Octanamine] | > 90 µM | –
46 | C/C(C=O)=C\c1ccccc1 [2-Methylcinnamic aldehyde] | > 90 µM | –
47 | CC/C=C/CCO [(E)-3-Hexen-1-ol] | > 90 µM | –
48 | C=C1/C(=C\C=C2/CCC[C@]3(C)[C@@H]([C@H](C)CCCC(C)C)CC[C@@H]23)C[C@@H](O)C[C@@H]1O [Alfacalcidol] | 14.8 µM | –
49 | CCO[Si](OCC)(OCC)c1ccccc1 [Triethoxy(phenyl)silane] | > 90 µM | –
50 | COc1cc(C(=O)OC(COCCC(C)C)CN2CCOCC2)cc(OC)c1OC (centres unmarked) [Amoproxan] | > 50 µM | –
51 | Nc1ccc(Sc2ccc(N)cc2)cc1 [4,4'-Thiodianiline] | > 90 µM | –
52 | CNC(=O)/C=C(\C)OP(=O)(OC)OC [Monocrotophos] | – | CC50 at 24 h (AC50 (uM) modified / 1000, Tox21_110001=Tox21_300806, viability, 1 nM T3 present, 24 h): > 90 µM
53 | Cn1cc(C(=O)[C@@H]2CCc3nc[nH]c3C2)c2ccccc21 [Ramosetron hydrochloride] | > 50 µM | –
54 | Nc1cc(C(=O)O)c(O)c(S(=O)(=O)O)c1 [5-Amino-3-sulfosalicylic acid] | > 90 µM | –

Row | SMILES | CC50 at 24 h (AC50 (uM) modified / 1000) | other results
55 | CCCCCCCCCCCCCCCCCC(=O)OCCCCCCCCCCCCCC(C)C [Isocetyl stearate] | > 90 µM | –
56 | O=C(O)CCCCC(=O)O [Hexanedioic acid] | > 90 µM | –
57 | CC(C)(c1ccccc1)c1ccccc1 [2,2-Diphenylpropane] | > 90 µM | –
58 | CC(C)(C)c1ccc(N)cc1 [4-tert-Butylaniline] | > 90 µM | –
59 | CCCCCOC(=O)CCCC [Pentyl valerate] | > 90 µM | –
60 | BrCBr [Dibromomethane] | > 90 µM | –
61 | Nc1nc(CC(=O)O)cs1 [2-Amino-4-thiazoleacetic acid] | > 90 µM | –
62 | CCCOC(=O)c1ccc(N)cc1 [Risocaine] | > 50 µM | –
63 | CC#N [Acetonitrile] | > 90 µM | –
64 | COc1ccc(C(=O)NCc2ccc(OCCN(C)C)cc2)cc1OC [Itopride hydrochloride] | > 50 µM | –
65 | CCCOCCC [Propyl ether] | > 90 µM | –
66 | CC#CCC(C)[C@H](O)/C=C/[C@@H]1[C@H]2c3cccc(CCCC(=O)O)c3O[C@H]2C[C@H]1O (mixture of isomers) [Beraprost sodium] | > 50 µM | –
67 | Fc1ccccc1-c1ccccc1 [2-Fluorobiphenyl] | > 90 µM | –
68 | SC1CCCC1 [Cyclopentanethiol] | > 90 µM | –
69 | CO[C@@]1(NC(=O)Cc2cccs2)C(=O)N2C(C(=O)O)=C(COC(N)=O)CS[C@@H]21 [Cefoxitin] | > 50 µM | –
70 | COc1cccc2sc(N)nc12 [2-Amino-4-methoxybenzothiazole] | > 90 µM | –
71 | c1ccc2cc(Nc3ccc(Nc4ccc5ccccc5c4)cc3)ccc2c1 [N,N'-Di-2-naphthyl-p-phenylenediamine] | > 90 µM | –
72 | O=C1c2ccccc2C(=O)C1C(=O)C(c1ccccc1)c1ccc(Cl)cc1 (centres unmarked) [Chlorophacinone] | – | CC50 at 24 h (AC50 (uM) modified / 1000, Tox21_110001=Tox21_301565, viability, 1 nM T3 present, 24 h): 42.3 µM
73 | Cc1cc(O)c2c(c1)C(=O)c1cccc(O)c1C2=O [Chrysophanic acid] | > 50 µM | –
74 | CC(C)(C)CC(C)(C)N [2,4,4-Trimethyl-2-pentanamine] | > 90 µM | –
75 | C=CCCC(=O)O [4-Pentenoic acid] | > 90 µM | –
76 | CCOC(=O)C(C#N)=C(c1ccccc1)c1ccccc1 [Ethyl 2-cyano-3,3-diphenylacrylate] | > 90 µM | –
77 | [N-]=[N+]=CC(=O)OC[C@H](N)C(=O)O [Azaserine] | > 50 µM | –
78 | CNC(=O)[C@H](Cc1c[nH]c2ccccc12)NC(=O)[C@@H](CC(=O)NO)CC(C)C [Ilomastat] | 1.28 µM | –
79 | N[C@@H](Cc1c[nH]c2ccccc12)C(=O)O [l-Tryptophan] | > 90 µM | –
